Several values for one entry are separate records, joined by “and”; a condition that tells them apart may be missing. Identical values can stand only once. Inconclusive results and toxic doses are left out. Rule for the calls: active = survival T/C of 150% or more; inactive = T/C below 125% in these data.
System: CD2F1 mice, L1210 leukemia ip, survival T/C
Assay: NCI In Vivo Anticancer Drug Screen. Data for tumor model L1210 Leukemia (intraperitoneal) in CD2F1 (CDF1) mice
Details: higher = longer survival
In short: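 Ratio T/C, where T is the treated-group value and C the vehicle-dosed control value, from mice implanted with a transplantable tumor.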

[1] = endpoint: mean survival time, dose: 100.0 mg/kg/injection, schedule: Q04DX003 (ip), vehicle: saline with Tween-80
[2] = endpoint: mean survival time, dose: 200.0 mg/kg/injection, schedule: Q04DX003 (ip), vehicle: saline with Tween-80
[3] = endpoint: mean survival time, dose: 400.0 mg/kg/injection, schedule: Q04DX003 (ip), vehicle: saline with Tween-80
[4] = endpoint: mean survival time, dose: 100.0 mg/kg/injection, schedule: Q04DX003 (ip), vehicle: saline
[5] = endpoint: mean survival time, dose: 200.0 mg/kg/injection, schedule: Q04DX003 (ip), vehicle: saline
[6] = endpoint: mean survival time, dose: 400.0 mg/kg/injection, schedule: Q04DX003 (ip), vehicle: saline
[7] = endpoint: mean survival time, dose: 100.0 mg/kg/injection, schedule: Q01DX009 (ip), vehicle: saline with Tween-80
[8] = endpoint: mean survival time, dose: 200.0 mg/kg/injection, schedule: Q01DX009 (ip), vehicle: saline with Tween-80
[9] = endpoint: mean survival time, dose: 400.0 mg/kg/injection, schedule: Q01DX009 (ip), vehicle: saline with Tween-80
[10] = endpoint: mean survival time, dose: 100.0 mg/kg/injection, schedule: Q01DX001 (ip), vehicle: saline with Tween-80
[11] = endpoint: mean survival time, dose: 100.0 mg/kg/injection, schedule: Q04DX002 (ip), vehicle: saline with Tween-80
[12] = endpoint: mean survival time, dose: 200.0 mg/kg/injection, schedule: Q01DX001 (ip), vehicle: saline with Tween-80
[13] = endpoint: mean survival time, dose: 200.0 mg/kg/injection, schedule: Q04DX002 (ip), vehicle: saline with Tween-80
[14] = endpoint: mean survival time, dose: 400.0 mg/kg/injection, schedule: Q01DX001 (ip), vehicle: saline with Tween-80
[15] = endpoint: mean survival time, dose: 400.0 mg/kg/injection, schedule: Q04DX002 (ip), vehicle: saline with Tween-80

Measured: T/C

CC(C)NS(=O)(=O)c1ccccc1
inactive: [1] 97 % of control | [2] 96 % of control | [3] 99 % of control

C/C=C/CC1(Cc2ccccc2)C(=O)NC(=S)NC1=O
inactive: endpoint: mean survival time, dose: 9.5 mg/kg/injection, schedule: Q01DX001 (ip), vehicle: other 108 % of control | endpoint: mean survival time, dose: 19.0 mg/kg/injection, schedule: Q01DX001 (ip), vehicle: other 111 % of control

COc1ccc(/C=C/C(=O)c2ccc3c(c2)OCO3)cc1OC
inactive: [4] 91 % of control | [5] 93 % of control | [6] 95 % of control

Cc1cc(C)c(O)c(C(=O)CC2CC(=O)NC(=O)C2)c1
inactive: [7] 100 % of control | [1] 95 % of control | [8] 105 % of control | [2] 97 % of control | [9] 101 % of control | [3] 95 % of control

CSc1ncnc2nn(C3OC(COC(=O)c4ccccc4)C(OC(=O)c4ccccc4)C3OC(=O)c3ccccc3)nc12 (stereo not drawn)
inactive: endpoint: median survival time, dose: 12.5 mg/kg/injection, schedule: Q01DX005 (ip), vehicle: Klucel (hydroxypropylcellulose) (HPC) 94 % of control | endpoint: median survival time, dose: 25.0 mg/kg/injection, schedule: Q01DX005 (ip), vehicle: Klucel (hydroxypropylcellulose) (HPC) 86 % of control | endpoint: median survival time, dose: 50.0 mg/kg/injection, schedule: Q01DX005 (ip), vehicle: Klucel (hydroxypropylcellulose) (HPC) 87 % of control | endpoint: median survival time, dose: 100.0 mg/kg/injection, schedule: Q01DX005 (ip), vehicle: Klucel (hydroxypropylcellulose) (HPC) 93 % of control and 95 % of control | endpoint: median survival time, dose: 200.0 mg/kg/injection, schedule: Q01DX005 (ip), vehicle: Klucel (hydroxypropylcellulose) (HPC) 89 % of control and 95 % of control | endpoint: median survival time, dose: 400.0 mg/kg/injection, schedule: Q01DX005 (ip), vehicle: Klucel (hydroxypropylcellulose) (HPC) 95 % of control

O=C(NC(=O)c1ccccc1)Nc1ccccc1
inactive: [7] 96 % of control | [1] 92 % of control | [2] 90 % of control | [9] 94 % of control | [3] 90 % of control

Nc1ccc(Nc2c3ccccc3nc3ccccc23)cc1
inactive: endpoint: mean survival time, dose: 6.25 mg/kg/injection, schedule: Q04DX003 (ip), vehicle: saline 101 % of control | endpoint: mean survival time, dose: 12.5 mg/kg/injection, schedule: Q04DX003 (ip), vehicle: saline 111 % of control | endpoint: mean survival time, dose: 25.0 mg/kg/injection, schedule: Q04DX003 (ip), vehicle: saline 114 % of control

O=[N+]([O-])c1ccc(C2Nc3cc(Cl)c(Cl)cc3S(=O)(=O)N2O)cc1 (stereo not drawn)
inactive: [10] 97 % of control | [11] 107 % of control | [12] 96 % of control | [13] 107 % of control | [14] 96 % of control | [15] 103 % of control

CCOC(OCC)/C(C)=N/[N+](C)(C)C
inactive: endpoint: mean survival time, dose: 75.0 mg/kg/injection, schedule: Q01DX001 (ip), vehicle: saline 107 % of control | endpoint: mean survival time, dose: 150.0 mg/kg/injection, schedule: Q01DX001 (ip), vehicle: saline 98 % of control

O=C(O)CCC(=O)CCC(=O)c1ccc2ccccc2c1
inactive: endpoint: mean survival time, dose: 100.0 mg/kg/injection, schedule: Q01DX001 (ip), vehicle: saline 98 % of control | endpoint: mean survival time, dose: 200.0 mg/kg/injection, schedule: Q01DX001 (ip), vehicle: saline 98 % of control | endpoint: mean survival time, dose: 400.0 mg/kg/injection, schedule: Q01DX001 (ip), vehicle: saline 95 % of control

COc1ccc(NC(=O)CCl)cc1
inactive: endpoint: mean survival time, dose: 25.0 mg/kg/injection, schedule: Q01DX009 (ip), vehicle: Klucel (hydroxypropylcellulose) (HPC) 96 % of control and 98 % of control | endpoint: mean survival time, dose: 50.0 mg/kg/injection, schedule: Q01DX009 (ip), vehicle: Klucel (hydroxypropylcellulose) (HPC) 96 % of control and 98 % of control | endpoint: mean survival time, dose: 100.0 mg/kg/injection, schedule: Q01DX009 (ip), vehicle: Klucel (hydroxypropylcellulose) (HPC) 96 % of control and 104 % of control

O=S1(=O)CCC2C1C1(Cl)C(Cl)=C(Cl)C2(Cl)C1(Cl)Cl (stereo not drawn)
inactive: endpoint: mean survival time, dose: 12.5 mg/kg/injection, schedule: Q01DX009 (ip), vehicle: saline sonified 104 % of control | endpoint: mean survival time, dose: 12.5 mg/kg/injection, schedule: Q04DX003 (ip), vehicle: saline with Tween-80 103 % of control | endpoint: mean survival time, dose: 25.0 mg/kg/injection, schedule: Q01DX009 (ip), vehicle: saline sonified 103 % of control | endpoint: mean survival time, dose: 25.0 mg/kg/injection, schedule: Q04DX003 (ip), vehicle: saline with Tween-80 97 % of control | endpoint: mean survival time, dose: 50.0 mg/kg/injection, schedule: Q04DX003 (ip), vehicle: saline with Tween-80 98 % of control

C=C1CC2CCC1C2 (stereo not drawn)
inactive: [7] 96 % of control | [1] 104 % of control | [2] 98 % of control | [3] 98 % of control

N#Cc1ccccc1NC1OCC(O)C(O)C1O (stereo not drawn)
inactive: [7] 95 % of control | [8] 101 % of control | [9] 94 % of control

OC1(c2cccc(C(F)(F)F)c2)CCN(C2CC2c2ccccc2)CC1 (stereo not drawn)
inactive: [11] 97 % of control | [13] 95 % of control

O=C1OCC/C1=C1/CCOC1
inactive: endpoint: mean survival time, dose: 25.0 mg/kg/injection, schedule: Q01DX009 (ip), vehicle: saline with Tween-80 101 % of control | endpoint: mean survival time, dose: 50.0 mg/kg/injection, schedule: Q01DX009 (ip), vehicle: saline with Tween-80 101 % of control

NC(=O)C(N)CCO (stereo not drawn)
inactive: endpoint: mean survival time, dose: 75.0 mg/kg/injection, schedule: Q01DX009 (ip), vehicle: saline 92 % of control | endpoint: mean survival time, dose: 75.0 mg/kg/injection, schedule: Q04DX003 (ip), vehicle: saline 97 % of control | endpoint: mean survival time, dose: 150.0 mg/kg/injection, schedule: Q01DX009 (ip), vehicle: saline 102 % of control | endpoint: mean survival time, dose: 150.0 mg/kg/injection, schedule: Q04DX003 (ip), vehicle: saline 95 % of control | endpoint: mean survival time, dose: 300.0 mg/kg/injection, schedule: Q01DX009 (ip), vehicle: saline 97 % of control | endpoint: mean survival time, dose: 300.0 mg/kg/injection, schedule: Q04DX003 (ip), vehicle: saline 95 % of control

C=CC1CCCCC1C (stereo not drawn)
inactive: [1] 100 % of control | [2] 100 % of control | [3] 103 % of control

Nc1nc(-c2ccccc2)nc2c1=NC(c1ccccc1)N=2 (stereo not drawn)
inactive: endpoint: mean survival time, dose: 12.5 mg/kg/injection, schedule: Q01DX005 (ip), vehicle: other 96 % of control | endpoint: mean survival time, dose: 25.0 mg/kg/injection, schedule: Q01DX005 (ip), vehicle: other 98 % of control | endpoint: mean survival time, dose: 50.0 mg/kg/injection, schedule: Q01DX005 (ip), vehicle: other 98 % of control | endpoint: mean survival time, dose: 100.0 mg/kg/injection, schedule: Q01DX005 (ip), vehicle: other 93 % of control | endpoint: mean survival time, dose: 200.0 mg/kg/injection, schedule: Q01DX005 (ip), vehicle: other 93 % of control

O=[N+]([O-])c1ccc(S(=O)(=O)Cl)c(Cl)c1
inactive: endpoint: mean survival time, dose: 18.8 mg/kg/injection, schedule: Q01DX009 (ip), vehicle: saline with Tween-80 91 % of control | endpoint: mean survival time, dose: 37.5 mg/kg/injection, schedule: Q01DX009 (ip), vehicle: saline with Tween-80 100 % of control | endpoint: mean survival time, dose: 75.0 mg/kg/injection, schedule: Q01DX009 (ip), vehicle: saline with Tween-80 95 % of control | [4] 98 % of control | [5] 89 % of control | [6] 86 % of control

O=C(NC(=S)Nc1ccc(CCO)cc1)c1cccc(Br)c1
inactive: [10] 104 % of control | [7] 97 % of control and 98 % of control | [11] 88 % of control and 101 % of control | [1] 100 % of control | [12] 98 % of control | [8] 101 % of control and 108 % of control | [13] 91 % of control and 92 % of control | [2] 100 % of control | [14] 104 % of control | [9] 86 % of control and 106 % of control | [15] 95 % of control | [3] 93 % of control

O=c1[nH]cc([N+](=O)[O-])c(=O)[nH]1
inactive: [11] 97 % of control | [13] 97 % of control | [15] 101 % of control

Reference: PubChem BioAssay AID256 (DTP/NCI, 2004)
